Assay results taken from US9932340B2, “Substituted indoles” (AbbVie Inc., priority 2014, dated 2018).

Biological target: SUV420H1 enzyme (Homo sapiens, UniProt Q4FZB7)
Experiment: TR-FRET SAH SUV420H1 enzyme inhibition assay
Type: biochemical
Settings: Histone Peptide H4(8-30)me1 and SAM, overnight at room temp, TR-FRET detection of SAH, read-out: TR-FRET SAH_SUV420H1 IC50
Method in brief: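 SUV420H1 (90 nM) preincubated 30 min with compound (3-fold dilutions, 50 to 0.00075 μM), then H4(8-30)me1 peptide 5 nM and SAM 4 nM added, overnight at room temp. SAH product detected by TR-FRET with Tb anti-SAH antibody and Oregon Green-SAH in RIPA buffer, 4 h; IC50 from Hill fit, asymptotes fixed 0-100%.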

SUV420H1 enzyme, sequence (Q4FZB7 whole entry): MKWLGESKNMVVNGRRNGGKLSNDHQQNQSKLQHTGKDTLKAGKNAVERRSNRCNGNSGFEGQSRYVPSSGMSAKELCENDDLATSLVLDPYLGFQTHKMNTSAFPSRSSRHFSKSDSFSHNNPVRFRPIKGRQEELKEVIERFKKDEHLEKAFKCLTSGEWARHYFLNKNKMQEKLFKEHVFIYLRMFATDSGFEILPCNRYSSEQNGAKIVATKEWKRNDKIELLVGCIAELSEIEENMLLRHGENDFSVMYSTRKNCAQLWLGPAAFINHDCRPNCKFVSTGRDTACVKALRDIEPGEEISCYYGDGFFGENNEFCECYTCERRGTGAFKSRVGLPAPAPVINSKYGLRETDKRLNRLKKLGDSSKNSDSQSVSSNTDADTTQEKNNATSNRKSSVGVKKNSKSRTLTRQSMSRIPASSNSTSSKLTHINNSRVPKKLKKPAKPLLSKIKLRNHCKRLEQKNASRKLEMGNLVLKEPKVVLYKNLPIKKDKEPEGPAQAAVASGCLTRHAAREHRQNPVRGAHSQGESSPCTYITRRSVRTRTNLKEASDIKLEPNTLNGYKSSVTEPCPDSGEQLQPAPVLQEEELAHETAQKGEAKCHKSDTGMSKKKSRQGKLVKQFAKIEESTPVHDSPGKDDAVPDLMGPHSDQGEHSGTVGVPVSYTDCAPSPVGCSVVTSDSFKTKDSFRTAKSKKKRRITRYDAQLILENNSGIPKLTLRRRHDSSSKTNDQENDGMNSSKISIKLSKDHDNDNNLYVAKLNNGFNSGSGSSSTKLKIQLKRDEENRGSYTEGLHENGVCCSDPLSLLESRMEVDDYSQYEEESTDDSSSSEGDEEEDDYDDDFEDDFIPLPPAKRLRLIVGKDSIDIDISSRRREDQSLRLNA

| IC50 | Compound |
| --- | --- |
| 1.27 µM | COC1CCC(C(=O)NCc2cc3cc(Cl)cc(Cn4cnc5c(N)ncnc54)c3[nH]2)CC1 (stereo not drawn) [Example 134, N-({7-[(6-amino-9H-purin-9-yl)methyl]-5-chloro-1H-indol-2-yl}methyl)-4-methoxycyclohexanecarboxamide] |
| 0.0564 µM | Cc1cc(C#N)ccc1C(=O)NCc1cc2cc(C3=CCC(F)(F)CC3)cc(Cn3cnc4c(N)ncnc43)c2[nH]1 [Example 306, N-({7-[(6-amino-9H-purin-9-yl)methyl]-5-(4,4-difluorocyclohex-1-en-1-yl)-1H-indol-2-yl}methyl)-4-cyano-2-methylbenzamide] |
| 1.17 µM | NCc1cc2cc(Cl)cc(Cn3cnc4c(N)ncnc43)c2[nH]1 [Example 9, 9-{[2-(aminomethyl)-5-chloro-1H-indol-7-yl]methyl}-9H-purin-6-amine] |
| 0.345 µM | N#Cc1cccc(-c2cc(Cn3cnc4c(N)ncnc43)c3[nH]c(CN)cc3c2)c1 [Example 39, 3-{2-(aminomethyl)-7-[(6-amino-9H-purin-9-yl)methyl]-1H-indol-5-yl}benzonitrile] |
| 1.7 µM | Nc1ncnc2c1ncn2Cc1cc(Cl)cc2cc(CNC(=O)c3cnc4[nH]cnc4c3)[nH]c12 [Example 333, N-({7-[(6-amino-9H-purin-9-yl)methyl]-5-chloro-1H-indol-2-yl}methyl)-3H-imidazo[4,5-b]pyridine-6-carboxamide] |
| 0.765 µM | CCCCc1nc2cc(C(=O)NCc3cc4cc(Cl)cc(Cn5cnc6c(N)ncnc65)c4[nH]3)ccc2o1 [Example 379, N-({7-[(6-amino-9H-purin-9-yl)methyl]-5-chloro-1H-indol-2-yl}methyl)-2-butyl-1,3-benzoxazole-5-carboxamide] |
| > 50 µM | Nc1ncnc2c1ncn2Cc1cc(Cl)cc2cc(CN(CC(=O)O)CC(=O)O)[nH]c12 [Example 101, 2,2′-[({7-[(6-amino-9H-purin-9-yl)methyl]-5-chloro-1H-indol-2-yl}methyl)imino]diacetic acid] |
| 0.75 µM | 4-(aminomethyl)-N-({7-[(6-amino-9H-purin-9-yl)methyl]-5-(4,4-difluorocyclohexyl)-1H-indol-2-yl}methyl)-2-methylbenzamide [Example 301] |
| 0.365 µM | Cc1noc(C)c1C(=O)NCc1cc2cc(-c3cccc(N4CCOCC4)c3)cc(Cn3cnc4c(N)ncnc43)c2[nH]1 [Example 179, N-({7-[(6-amino-9H-purin-9-yl)methyl]-5-[3-(morpholin-4-yl)phenyl]-1H-indol-2-yl}methyl)-3,5-dimethyl-1,2-oxazole-4-carboxamide] |
| 0.939 µM | N#Cc1ccc(-c2ccc(Cn3cnc4c(N)ncnc43)c3[nH]c(CN)cc23)cc1 [Example 82, 4-{2-(aminomethyl)-7-[(6-amino-9H-purin-9-yl)methyl]-1H-indol-4-yl}benzonitrile] |
| 0.866 µM | NCc1cc2cc(-c3cccnc3)cc(Cn3cnc4c(N)ncnc43)c2[nH]1 [Example 20, 9-{[2-(aminomethyl)-5-(pyridin-3-yl)-1H-indol-7-yl]methyl}-9H-purin-6-amine] |
| 22.2 µM | Nc1ncnc2c1ncn2Cc1cc(Cl)cc2cc(CO)[nH]c12 [Example 7, {7-[(6-amino-9H-purin-9-yl)methyl]-5-chloro-1H-indol-2-yl}methanol] |
| 15.5 µM | Nc1ncnc2c1ncn2Cc1cc(Cl)cc2cc(CNC(=O)Cc3cccc(F)c3)[nH]c12 [Example 255, N-({7-[(6-amino-9H-purin-9-yl)methyl]-5-chloro-1H-indol-2-yl}methyl)-2-(3-fluorophenyl)acetamide] |
| 0.0367 µM | Cc1cc(C#N)ccc1C(=O)NCc1cc2cc(C3=CCNCC3)cc(Cn3cnc4c(N)ncnc43)c2[nH]1 [Example 305, N-({7-[(6-amino-9H-purin-9-yl)methyl]-5-(1,2,3,6-tetrahydropyridin-4-yl)-1H-indol-2-yl}methyl)-4-cyano-2-methylbenzamide] |
| 4.77 µM | Cn1ccnc1C(=O)NCc1cc2cc(Cl)cc(Cn3cnc4c(N)ncnc43)c2[nH]1 [Example 154, N-({7-[(6-amino-9H-purin-9-yl)methyl]-5-chloro-1H-indol-2-yl}methyl)-1-methyl-1H-imidazole-2-carboxamide] |
| 4.28 µM | Cc1nc2ccc(C(=O)NCc3cc4cc(Cl)cc(Cn5cnc6c(N)ncnc65)c4[nH]3)cc2o1 [Example 359, N-({7-[(6-amino-9H-purin-9-yl)methyl]-5-chloro-1H-indol-2-yl}methyl)-2-methyl-1,3-benzoxazole-6-carboxamide] |
| 2.76 µM | Nc1ncnc2c1ncn2Cc1cc(Cl)cc2cc(CNCc3ccc(Cl)c(Cl)c3)[nH]c12 [Example 213, 9-[(5-chloro-2-{[(3,4-dichlorobenzyl)amino]methyl}-1H-indol-7-yl)methyl]-9H-purin-6-amine] |
| 0.0491 µM | Cc1cc(C#N)ccc1C(=O)NCc1cc2cc(C3=CCOCC3)cc(Cn3cnc4c(N)ncnc43)c2[nH]1 [Example 304, N-({7-[(6-amino-9H-purin-9-yl)methyl]-5-(3,6-dihydro-2H-pyran-4-yl)-1H-indol-2-yl}methyl)-4-cyano-2-methylbenzamide] |

| IC50 | Compound |
| --- | --- |
| 1.78 µM | Cc1cc(C(=O)NCc2cc3cc(Cl)cc(Cn4cnc5c(N)ncnc54)c3[nH]2)n(C)n1 [Example 183, N-({7-[(6-amino-9H-purin-9-yl)methyl]-5-chloro-1H-indol-2-yl}methyl)-1,3-dimethyl-1H-pyrazole-5-carboxamide] |
| 0.911 µM | CS(=O)(=O)c1ccc(C(=O)NCc2cc3cc(Cl)cc(Cn4cnc5c(N)ncnc54)c3[nH]2)c(Cl)c1 [Example 266, N-({7-[(6-amino-9H-purin-9-yl)methyl]-5-chloro-1H-indol-2-yl}methyl)-2-chloro-4-(methylsulfonyl)benzamide] |
| 3.08 µM | CCc1ccc(Cn2cnc3c(N)ncnc32)c2[nH]c(CN)cc12 [Example 64, 9-{[2-(aminomethyl)-4-ethyl-1H-indol-7-yl]methyl}-9H-purin-6-amine] |
| 1.43 µM | CC(N)c1cc2cc(Cl)cc(Cn3cnc4c(N)ncnc43)c2[nH]1 (stereo not drawn) [Example 88, 9-{[2-(1-aminoethyl)-5-chloro-1H-indol-7-yl]methyl}-9H-purin-6-amine] |
| 6.26 µM | Cc1c(C)n(C)c2ccc(C(=O)NCc3cc4cc(Cl)cc(Cn5cnc6c(N)ncnc65)c4[nH]3)cc12 [Example 378, N-({7-[(6-amino-9H-purin-9-yl)methyl]-5-chloro-1H-indol-2-yl}methyl)-1,2,3-trimethyl-1H-indole-5-carboxamide] |
| 3.24 µM | COc1cc(C#N)ccc1CNCc1cc2cc(Cl)cc(Cn3cnc4c(N)ncnc43)c2[nH]1 [Example 311, 4-{[({7-[(6-amino-9H-purin-9-yl)methyl]-5-chloro-1H-indol-2-yl}methyl)amino]methyl}-3-methoxybenzonitrile] |
| 1.12 µM | NCc1cc2c(Cl)ccc(Cn3cnc4c(N)ncnc43)c2[nH]1 [Example 62, 9-{[2-(aminomethyl)-4-chloro-1H-indol-7-yl]methyl}-9H-purin-6-amine] |
| 2.85 µM | Nc1ncnc2c1ncn2Cc1cc(Cl)cc2cc(CNC(=O)c3ccc4ncoc4c3)[nH]c12 [Example 338, N-({7-[(6-amino-9H-purin-9-yl)methyl]-5-chloro-1H-indol-2-yl}methyl)-1,3-benzoxazole-6-carboxamide] |
| 1.5 µM | N#Cc1cccc(C(=O)NCc2cc3cc(Cl)cc(Cn4cnc5c(N)ncnc54)c3[nH]2)c1 [Example 273, N-({7-[(6-amino-9H-purin-9-yl)methyl]-5-chloro-1H-indol-2-yl}methyl)-3-cyanobenzamide] |
| 0.293 µM | CN1CCN(Cc2cccc(-c3cc(Cn4cnc5c(N)ncnc54)c4[nH]c(CN)cc4c3)c2)CC1 [Example 55, 9-{[2-(aminomethyl)-5-{3-[(4-methylpiperazin-1-yl)methyl]phenyl}-1H-indol-7-yl]methyl}-9H-purin-6-amine] |
| > 50 µM | COc1ccsc1C(=O)NCc1cc2cc(Cl)cc(Cn3cnc4c(N)ncnc43)c2[nH]1 [Example 159, N-({7-[(6-amino-9H-purin-9-yl)methyl]-5-chloro-1H-indol-2-yl}methyl)-3-methoxythiophene-2-carboxamide] |
| 6 µM | Nc1ncnc2c1ncn2Cc1cc(Cl)cc2cc(CNC(=O)CN3CCOCC3)[nH]c12 [Example 127, N-({7-[(6-amino-9H-purin-9-yl)methyl]-5-chloro-1H-indol-2-yl}methyl)-2-(morpholin-4-yl)acetamide] |
| 3.34 µM | Nc1ncnc2c1ncn2Cc1cc(Cl)cc2cc(CNCc3ccccc3Cl)[nH]c12 [Example 210, 9-[(5-chloro-2-{[(2-chlorobenzyl)amino]methyl}-1H-indol-7-yl)methyl]-9H-purin-6-amine] |
| 5.96 µM | Nc1ncnc2c1ncn2Cc1cc(Cl)cc2cc(CNC(=O)c3ccc4sccc4c3)[nH]c12 [Example 354, N-({7-[(6-amino-9H-purin-9-yl)methyl]-5-chloro-1H-indol-2-yl}methyl)-1-benzothiophene-5-carboxamide] |
| 16.3 µM | Nc1ncnc2c1ncn2Cc1cc(Cl)cc2cc(CNCCC(=O)O)[nH]c12 [Example 96, 3-[({7-[(6-amino-9H-purin-9-yl)methyl]-5-chloro-1H-indol-2-yl}methyl)amino]propanoic acid] |
| 0.0492 µM | Cc1cc(C(=O)NCc2cc3cc(C4=CCNCC4)cc(Cn4cnc5c(N)ncnc54)c3[nH]2)c(C)nn1 [Example 235, N-({7-[(6-amino-9H-purin-9-yl)methyl]-5-(1,2,3,6-tetrahydropyridin-4-yl)-1H-indol-2-yl}methyl)-3,6-dimethylpyridazine-4-carboxamide] |
| 1.33 µM | Cc1cccc(-c2ccc(Cn3cnc4c(N)ncnc43)c3[nH]c(CN)cc23)c1 [Example 76, 9-{[2-(aminomethyl)-4-(3-methylphenyl)-1H-indol-7-yl]methyl}-9H-purin-6-amine] |
| 0.223 µM | NCc1cc2cc(-c3ccc(C(=O)NC4CC4)cc3)cc(Cn3cnc4c(N)ncnc43)c2[nH]1 [Example 50, 4-{2-(aminomethyl)-7-[(6-amino-9H-purin-9-yl)methyl]-1H-indol-5-yl}-N-cyclopropylbenzamide] |
